Molecules are shown by their SMILES.

Data set [1] deals with T1, hFXR (Homo sapiens, UniProt Q96RI1).
T1 construct: expressed in transfected cells; host or cells: CV-1 cells
T1 sequence (Q96RI1 1-486): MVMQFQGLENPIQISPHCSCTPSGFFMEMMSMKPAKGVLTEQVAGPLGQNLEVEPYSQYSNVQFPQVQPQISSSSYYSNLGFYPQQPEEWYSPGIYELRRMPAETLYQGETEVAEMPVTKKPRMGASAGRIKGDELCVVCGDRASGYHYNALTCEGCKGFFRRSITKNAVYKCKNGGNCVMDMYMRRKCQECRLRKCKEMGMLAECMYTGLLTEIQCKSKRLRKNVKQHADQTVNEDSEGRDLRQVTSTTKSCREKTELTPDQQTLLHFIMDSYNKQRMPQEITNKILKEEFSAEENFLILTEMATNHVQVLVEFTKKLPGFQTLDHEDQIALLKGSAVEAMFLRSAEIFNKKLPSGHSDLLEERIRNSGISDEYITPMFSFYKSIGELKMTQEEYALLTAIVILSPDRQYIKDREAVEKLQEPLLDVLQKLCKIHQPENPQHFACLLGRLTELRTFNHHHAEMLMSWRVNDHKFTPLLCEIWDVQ
T1 sequence (P19793 1-462 partner): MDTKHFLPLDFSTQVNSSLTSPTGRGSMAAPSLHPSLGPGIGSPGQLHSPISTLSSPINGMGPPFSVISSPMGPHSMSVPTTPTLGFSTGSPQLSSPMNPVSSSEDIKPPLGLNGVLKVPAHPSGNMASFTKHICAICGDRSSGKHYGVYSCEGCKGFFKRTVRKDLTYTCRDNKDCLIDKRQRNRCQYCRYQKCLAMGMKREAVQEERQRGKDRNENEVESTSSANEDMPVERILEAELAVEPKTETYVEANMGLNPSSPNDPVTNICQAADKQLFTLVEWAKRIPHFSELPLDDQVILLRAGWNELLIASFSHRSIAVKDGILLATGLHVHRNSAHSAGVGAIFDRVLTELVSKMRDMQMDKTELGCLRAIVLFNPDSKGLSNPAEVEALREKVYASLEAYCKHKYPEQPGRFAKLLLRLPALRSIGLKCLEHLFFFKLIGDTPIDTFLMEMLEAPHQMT
As to the kind of experiment: In Vitro FXR Assay (TK). Particulars: CV-1 cells transfected with hFXR, hRXR, TK-ECRE-luc and pCMX-YFP; incubated 18 hrs; luminescence. The format is cell-based. As to the method: Example 10: In Vitro FXR Assay (TK)
CV-1 were seeded at a density of 2,000,000 cells in a T175 flask with DMEM+10% charcoal double-stripped FBS and incubated at 37° C. in 5% CO2 for 18 h (O/N).
After 18 h of incubation, the medium in the T175 flask was changed with fresh DMEM+10% charcoal super-stripped serum. In a polypropylene tube, 2500 μL OptiMEM (Life Technologies, Cat #31985-062) was combined with expression plasmids for hFXR, hRXR, TK-ECRE-luc and pCMX-YFP. The tube was then briefly vortexed and incubated at room temperature for 5 minutes. Transfection reagent (X-tremeGENE HP from Roche, Cat #06 366 236 001) was added to the OptiMEM/plasmid mixture vortexed and incubated at room temperature for 20 minutes. Following incubation, the transfection reagent/DNA mixture complex was added to cells in the T175 flask and the cells were incubated at 37° C. in 5% CO2 for 18 h (O/N).
Compound 1 was serially diluted in DMSO and added to transfected CV-1 cells. The cells were then incubated for 18 hrs. The next day cells were lysed and examined for luminescence. Compound 1 TK hFXR: EC50≤0.01 μM.

Data set [2] is described as follows: Dynamic Vapor Sorption (DVS). The format is physicochemical. As to conditions: for water content at 95% RH (DVS) / hygroscopicity (DVS): 25° C.; for water content at 95% RH (DVS): two complete sorption/desorption cycles; for hygroscopicity (DVS): DVS isotherm. On the procedure:
Sorption isotherms were obtained using a SMS DVS Intrinsic moisture sorption analyzer, controlled by DVS Intrinsic Control software v1.0.1.2 (or v1.0.1.3). The sample temperature was maintained at 25° C. by the instrument controls. The humidity was controlled by mixing streams of dry and wet nitrogen, with a total flow rate of 200 ml/min. The relative humidity (RH) was measured by a calibrated Rotronic probe (dynamic range of 1.0-100% RH), located near the sample. The weight change, (mass relaxation) of the sample as a function of % RH was constantly monitored by the microbalance (accuracy ±0.005 mg).

In the case of `COc1ccc(C23CCC(CN(c4cc(-c5cnn(C(C)(C)C)c5)ccn4)C(=O)[C@H]4CC[C@H](OC(=O)N5CC(O)C5)CC4)(CC2)CC3)cc1C` [Compound 1, 4-((4-(1-(tert-butyl)-1H-pyrazol-4-yl)pyridin-2-yl)((4-(4-methoxy-3-methylphenyl)bicyclo[2.2.2]octan-1-yl)methyl)carbamoyl)cyclohexyl 3-hydroxyazetidine-trans-1-carboxylate], the EC50 in data set [1] is at most 0.01 µM.

For the compound `COc1ccc(C23CCC(CN(c4cc(-c5cnn(C(C)(C)C)c5)ccn4)C(=O)[C@H]4CC[C@H](OC(=O)N5CC(O)C5)CC4)(CC2)CC3)cc1C` [Form 1 of Compound 1, 4-((4-(1-(tert-butyl)-1H-pyrazol-4-yl)pyridin-2-yl)((4-(4-methoxy-3-methylphenyl)bicyclo[2.2.2]octan-1-yl)methyl)carbamoyl)cyclohexyl 3-hydroxyazetidine-trans-1-carboxylate], in data set [2], the “water content at 95% RH (DVS)” value was 1.2%, the “hygroscopicity (DVS)” value is “only slightly hygroscopic” and the “changes in the XRPD pattern of post-DVS samples” value (shortened to “changes in the XRPD pattern”) is recorded as “no significant changes”.

For `COc1ccc(C23CCC(CN(c4cc(-c5cnn(C(C)(C)C)c5)ccn4)C(=O)[C@H]4CC[C@H](OC(=O)N5CC(O)C5)CC4)(CC2)CC3)cc1C` [Form 2 of Compound 1, 4-((4-(1-(tert-butyl)-1H-pyrazol-4-yl)pyridin-2-yl)((4-(4-methoxy-3-methylphenyl)bicyclo[2.2.2]octan-1-yl)methyl)carbamoyl)cyclohexyl 3-hydroxyazetidine-trans-1-carboxylate], in data set [2], the “water content at 95% RH (DVS)” value amounted to 1.0%, the “hygroscopicity (DVS)” value is given as “only slightly hygroscopic” and the “changes in the XRPD pattern” value was “no significant changes”.

As to `COc1ccc(C23CCC(CN(c4cc(-c5cnn(C(C)(C)C)c5)ccn4)C(=O)[C@H]4CC[C@H](OC(=O)N5CC(O)C5)CC4)(CC2)CC3)cc1C` [Form 3 of Compound 1, 4-((4-(1-(tert-butyl)-1H-pyrazol-4-yl)pyridin-2-yl)((4-(4-methoxy-3-methylphenyl)bicyclo[2.2.2]octan-1-yl)methyl)carbamoyl)cyclohexyl 3-hydroxyazetidine-trans-1-carboxylate], in data set [2], the “water content at 95% RH (DVS)” value is on record as 1.2%, the “hygroscopicity (DVS)” value is on record as “only slightly hygroscopic” and the “changes in the XRPD pattern” value is “no significant changes”.

Regarding `COc1ccc(C23CCC(CN(c4cc(-c5cnn(C(C)(C)C)c5)ccn4)C(=O)[C@H]4CC[C@H](OC(=O)N5CC(O)C5)CC4)(CC2)CC3)cc1C` [Form 4 of Compound 1, 4-((4-(1-(tert-butyl)-1H-pyrazol-4-yl)pyridin-2-yl)((4-(4-methoxy-3-methylphenyl)bicyclo[2.2.2]octan-1-yl)methyl)carbamoyl)cyclohexyl 3-hydroxyazetidine-trans-1-carboxylate], in data set [2], the “water content at 95% RH (DVS)” value is recorded as 1.9%, the “hygroscopicity (DVS)” value was “only slightly hygroscopic” and the “changes in the XRPD pattern” value was “no significant changes”.

Broadly, the EC50 is the midpoint of the concentration-response curve. A higher EC50 goes with weaker potency.
